Structures are written as SMILES. Activity calls are given as the source filed them. No cut-off for these calls is given here.

What all share (type): functional, organism-based
The test system of assay [1] is Mus musculus. Nature of the assay: Central nervous system depression activity in mouse assessed as staggering gait at 25 mg/kg, ip. Also on record: dose 25 mg/kg.
Assay [2] concerns Mus musculus. Nature of the assay: Central nervous system depression activity in mouse assessed as passivity at 25 mg/kg, ip. Also on record: dose 25 mg/kg.
The subject of assay [3] is Mus musculus. Nature of the assay: Central nervous system depression activity in mouse assessed as ptosis at 25 mg/kg, ip. Also noted: dose 25 mg/kg.
The test system of assay [4] is Mus musculus. Nature of the assay: Central nervous system depression activity in mouse assessed as decrease in locomotor activity at 50 mg/kg, ip. Also noted: dose 50 mg/kg.
The subject of assay [5] is Mus musculus. Nature of the assay: Central nervous system depression activity in mouse assessed as decrease in locomotor activity at 25 mg/kg, ip. Also on record: dose 25 mg/kg.
The subject of assay [6] is Mus musculus. Nature of the assay: Central nervous system depression activity in mouse assessed as decrease in touch response at 25 mg/kg, ip. Also on record: dose 25 mg/kg.
The test system of assay [7] is Mus musculus. Nature of the assay: Central nervous system depression activity in mouse assessed as induction of passivity at 50 mg/kg, ip after 60 mins. Also noted: dose 50 mg/kg.
The subject of assay [8] is Mus musculus. Nature of the assay: Central nervous system depression activity in mouse assessed as abduction of limbs at 50 mg/kg, ip after 60 mins. Also noted: dose 50 mg/kg.
Assay [9] concerns Mus musculus. Nature of the assay: Central nervous system depression activity in mouse assessed as tremors on movement at 50 mg/kg, ip after 60 mins. Also on record: dose 50 mg/kg.
Assay [10] deals with Mus musculus. Nature of the assay: Central nervous system depression activity in mouse assessed as staggering gait at 25 mg/kg, ip after 30 mins. Also on record: dose 25 mg/kg.
The subject of assay [11] is Mus musculus. Nature of the assay: Central nervous system depression activity in mouse assessed as fast respiration at 50 mg/kg, ip after 40 mins. Also noted: dose 50 mg/kg.
The test system of assay [12] is Mus musculus. Nature of the assay: Central nervous system depression activity in mouse assessed as decrease in body and limb tone at 50 mg/kg, ip after 60 mins. Also on record: dose 50 mg/kg.
Assay [13] relates to Mus musculus. Nature of the assay: Central nervous system depression activity in mouse assessed as staggering gait at 50 mg/kg, ip after 40 mins. Also on record: dose 50 mg/kg.
Assay [14] concerns Mus musculus. Nature of the assay: Central nervous system depression activity in mouse assessed as decrease in touch response at 50 mg/kg, ip. Also noted: dose 50 mg/kg.

`CO[C@H]1[C@@H](O)[C@@H](C)O[C@@H](O[C@H]2CC[C@@]3(C)[C@H](CC[C@@H]4[C@@H]3CC[C@]3(C)[C@@H](C5=CC(=O)OC5)CC[C@]43O)C2)[C@@H]1O`: the outcome with Mus musculus [1], in the assay with Mus musculus [2], in the assay with Mus musculus [3], in the assay on Mus musculus [4], in the assay with Mus musculus [5] and in the assay on Mus musculus [6] was Active.
With `CO[C@H]1[C@@H](O)[C@@H](C)O[C@@H](O[C@H]2CC[C@@]3(C)[C@H](CC[C@@H]4[C@@H]3CC[C@]3(C)[C@@H](C5=CC(=O)OC5)[C@@H](OC(C)=O)C[C@]43O)C2)[C@@H]1O`, the outcome in the assay on Mus musculus [7], in the assay with Mus musculus [8], with Mus musculus [9], in the assay with Mus musculus [10], with Mus musculus [4] and in the assay on Mus musculus [11] was Active. Moreover, the result with Mus musculus [12] was Active. The outcome in the assay with Mus musculus [6] was inactive.
Regarding `CO[C@H]1[C@H](O[C@H]2CC[C@@]3(C)[C@H](CC[C@@H]4[C@@H]3CC[C@]3(C)C(C5=CC(=O)OC5)=CC[C@]43O)C2)O[C@H](C)[C@H](O)[C@@H]1OC`, the result with Mus musculus [13], in the assay with Mus musculus [14], with Mus musculus [4] and with Mus musculus [5] was Active. In addition, in the assay on Mus musculus [6], the outcome was inactive.

These data come from ChEMBL document CHEMBL1146398, “Cardenolides from the methanolic extract of Nerium oleander leaves possessing central nervous system depressant activity in mice” (J Nat Prod, 1997).
